Experimental data as given in ChEMBL document CHEMBL5325458, “Growth factors and their peptide mimetics for treatment of traumatic brain injury” (2023).
Where a SMILES comes first, the peptide text is derived from it.

Legend:
Rattus norvegicus [1] = test: Neuroprotective activity against medial cerebral artery occlusion induced cerebral ischemia rat model assessed decrease in infarct volume at 0.1 mg/kg, ip qd administered 4 hrs post reperfusion and measured after 6 days by TTC staining based assay; format: functional; set-up: scale not given: the % may be the effect or the level left; settings: time 144 hrs
Rattus norvegicus [2] = test: Neuroprotective activity against medial cerebral artery occlusion induced cerebral ischemia rat model assessed decrease in infarct volume at 1 mg/kg, ip qd administered 4 hrs post reperfusion and measured after 6 days by TTC staining based assay; format: functional; set-up: scale not given: the % may be the effect or the level left; settings: time 144 hrs
[3] = Induction of TrkA phosphorylation in rat PC12 cells at 3 uM measured after 10 to 30 mins by Western blotting analysis relative to control; format: functional, PC-12; settings: time 10-30 min
[4] = Neuroprotective activity against chick primary sensory neuron assessed as inhibition of BDNF-mediated neuronal survival; format: functional, Gallus gallus
[5] = biological target: BDNF/NT-3 growth factors receptor (Homo sapiens) (UniProt Q16620); test: Agonist activity at human TrkB receptor in HEK293 cells assessed as increase in ERK phosphorylation at 0.001 to 1 uM relative to control; format: cell-based; settings: filed as agonist, dose 0.001-1 µM
[6] = biological target: BDNF/NT-3 growth factors receptor (Homo sapiens) (UniProt Q16620); test: Agonist activity at human TrkB receptor in HEK293 cells assessed as increase in TrkB phosphorylation at 0.001 to 1 uM relative to control; format: cell-based; settings: filed as agonist, dose 0.001-1 µM
[7] = biological target: Hepatocyte growth factor (Homo sapiens) (UniProt P14210); test: Activation of HGF in human A549 cells assessed as increase in Met phosphorylation; format: cell-based
Sequence of Hepatocyte growth factor (Homo sapiens) (P14210 32-494 limits assumed): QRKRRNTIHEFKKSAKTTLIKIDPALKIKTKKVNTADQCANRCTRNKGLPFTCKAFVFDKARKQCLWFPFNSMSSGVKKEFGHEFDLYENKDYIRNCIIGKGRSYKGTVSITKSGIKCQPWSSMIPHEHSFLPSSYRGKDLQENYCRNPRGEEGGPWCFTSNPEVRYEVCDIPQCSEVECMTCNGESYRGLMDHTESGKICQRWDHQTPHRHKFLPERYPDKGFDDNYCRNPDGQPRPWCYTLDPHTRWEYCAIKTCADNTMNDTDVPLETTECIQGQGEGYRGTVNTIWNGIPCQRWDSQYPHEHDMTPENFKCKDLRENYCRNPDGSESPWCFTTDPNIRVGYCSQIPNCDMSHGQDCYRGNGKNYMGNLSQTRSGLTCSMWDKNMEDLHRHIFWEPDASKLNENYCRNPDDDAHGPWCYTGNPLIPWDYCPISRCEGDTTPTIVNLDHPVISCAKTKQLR
Sequence of Hepatocyte growth factor (Homo sapiens) (P14210 495-728 limits assumed): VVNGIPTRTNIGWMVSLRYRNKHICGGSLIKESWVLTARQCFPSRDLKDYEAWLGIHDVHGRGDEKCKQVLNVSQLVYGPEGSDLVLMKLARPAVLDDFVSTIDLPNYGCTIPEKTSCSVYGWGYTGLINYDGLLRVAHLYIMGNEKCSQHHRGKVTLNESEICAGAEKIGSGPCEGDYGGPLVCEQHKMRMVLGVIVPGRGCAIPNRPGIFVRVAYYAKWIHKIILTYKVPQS

Sequence of BDNF/NT-3 growth factors receptor (Homo sapiens) (Q16620 32-822 limits assumed): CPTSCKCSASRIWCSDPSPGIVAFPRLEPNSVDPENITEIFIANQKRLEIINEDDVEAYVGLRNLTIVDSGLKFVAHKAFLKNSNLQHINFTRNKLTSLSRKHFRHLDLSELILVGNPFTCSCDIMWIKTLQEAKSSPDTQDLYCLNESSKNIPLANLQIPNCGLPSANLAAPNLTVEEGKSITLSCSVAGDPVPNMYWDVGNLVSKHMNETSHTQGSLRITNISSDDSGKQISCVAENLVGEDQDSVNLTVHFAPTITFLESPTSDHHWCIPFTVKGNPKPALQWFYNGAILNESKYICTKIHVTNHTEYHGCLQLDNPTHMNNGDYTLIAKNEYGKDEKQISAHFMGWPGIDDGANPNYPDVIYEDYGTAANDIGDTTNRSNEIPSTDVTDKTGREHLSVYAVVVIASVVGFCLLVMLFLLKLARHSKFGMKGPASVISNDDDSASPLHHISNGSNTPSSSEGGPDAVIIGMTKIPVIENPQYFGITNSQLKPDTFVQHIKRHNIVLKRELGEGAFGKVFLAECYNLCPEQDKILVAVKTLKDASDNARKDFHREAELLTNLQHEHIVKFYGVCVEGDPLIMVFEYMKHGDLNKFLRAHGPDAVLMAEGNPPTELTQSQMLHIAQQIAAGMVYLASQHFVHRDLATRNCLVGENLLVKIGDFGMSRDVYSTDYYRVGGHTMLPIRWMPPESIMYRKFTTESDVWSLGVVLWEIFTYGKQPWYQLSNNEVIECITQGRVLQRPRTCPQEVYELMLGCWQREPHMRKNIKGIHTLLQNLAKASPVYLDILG

## NCCCC[C@H](NCCCCCCNC(=O)[C@H](CCCCN)NC(=O)[C@H](CO)NC(=O)CCC(=O)O)C(=O)N[C@@H](CO)C(=O)CCC(=O)O
Rattus norvegicus [1]
  Activity: ~66%

## NCCCC[C@H](NC(=O)[C@H](Cc1c[nH]cn1)NCCCCCCNC(=O)[C@H](Cc1c[nH]cn1)NC(=O)[C@H](CCCCN)NC(=O)CCCO)C(=O)CCCO
Rattus norvegicus [2]
  Activity: 25%

## CC[C@H](C)[C@@H]1NC(=O)[C@H](CC(=O)O)NC(=O)[C@H]([C@@H](C)O)NC(=O)[C@H](N)CSSC[C@H](C(=O)N[C@H](C(=O)NCC(=O)N[C@@H](C)C(=O)N[C@H]2CSSC[C@@H](C(=O)O)NC(=O)[C@H](CCC(N)=O)NC(=O)[C@H](CCCCN)NC(=O)CNC(=O)[C@H](CC(=O)O)NC2=O)[C@@H](C)O)NC(=O)[C@H](CCCCN)NC(=O)CNC(=O)[C@H](CCCCN)NC1=O
[3]
  Activity: ~75%

## CC(C)C[C@@H]1NC(=O)[C@H](CCC(N)=O)NC(=O)CNC(=O)[C@H](CCCCN)NC(=O)[C@H](CO)NC(=O)[C@H](C(C)C)NC(=O)[C@@H]2CCCN2C(=O)[C@H](C(C)C)NC(=O)[C@@H](N)CSSC[C@@H](C(=O)O)NC1=O (HELM PEPTIDE1{C.V.P.V.S.K.G.Q.L.C}$PEPTIDE1,PEPTIDE1,1:R3-10:R3$$$V2.0)
[4]
  inhibition (INH): 50%

## CSCC[C@H](NC(=O)[C@H](CCCNC(=N)N)NC(=O)[C@@H]1CCCN1C(=O)[C@H](CC(C)C)NC(=O)[C@H](CO)NC(=O)[C@H](CC(N)=O)NC(=O)CC(N)CC(=O)[C@H](CC(N)=O)NC(=O)[C@H](CO)NC(=O)[C@H](CC(C)C)NC(=O)[C@@H]1CCCN1C(=O)[C@H](CCCNC(=N)N)NC(=O)[C@H](CCSC)NC(=O)[C@@H]1CSSC[C@H](C(N)=O)C(=O)N[C@@H](CC(C)C)C(=O)N[C@@H](CCCNC(=N)N)C(=O)N[C@@H](Cc2c[nH]c3ccccc23)C(=O)N[C@@H](CCCNC(=N)N)C(=O)N[C@@H](CCCNC(=N)N)C(=O)N[C@@H](C(C)C)C(=O)N[C@@H](CCCNC(=N)N)C(=O)N1)C(=O)N[C@H]1CSSC[C@@H](C(=O)N[C@@H](Cc2ccccc2)C(=O)O)NC(=O)[C@H](CC(C)C)NC(=O)[C@H](CCCNC(=N)N)NC(=O)[C@H](Cc2c[nH]c3ccccc23)NC(=O)[C@H](CCCNC(=N)N)NC(=O)[C@H](CCCNC(=N)N)NC(=O)[C@H](C(C)C)NC(=O)[C@H](CCCNC(=N)N)NC1=O (some centres not stated) (HELM PEPTIDE1{L.R.W.R.R.V.R.C.M.R.P.L.S.[NC(=O)C[C@H](N[*:1])C(=O)CC(N)CC(=O)[*:2]].N.S.L.P.R.M.C.R.V.R.R.W.R.L.C.F}|CHEM1{[NC(=O)[C@@H](CS[*:2])C(=O)[*:1]]}$PEPTIDE1,PEPTIDE1,21:R3-29:R3|PEPTIDE1,CHEM1,1:R1-1:R1|PEPTIDE1,CHEM1,8:R3-1:R2$$$V2.0)
[5]
  Activity: 50%
[6]
  Activity: 50%

## H-VVNGIPTR-OH
[7]
  Activity: 25%
